Values quoted from earlier work as cited in patent US20260207623A1, “USE OF ESTETROL IN HEPATICALLY IMPAIRED PATIENTS” (ESTETRA SRL, priority 2022, published 2026).

Details: mass balance study in humans; cited from earlier work

For C[C@]12CC[C@@H]3c4ccc(O)cc4CC[C@H]3[C@@H]1[C@@H](O)[C@@H](O)[C@@H]2O [E4, 1,3,5 (10)-estratrien-3,15alpha, 16alpha, 17beta-tetrol], the “contribution of hepatic elimination to the overall elimination” value is given as “approximately 20%”.
